Test results: US20170128475A1, “COMPOSITIONS AND METHODS FOR PREVENTING AND TREATING ORGAN INJURY AND/OR DYSFUNCTION” (THE GENERAL HOSPITAL CORPORATION, priority 2010, published 2017)

What was measured:
Cx32+/+ and Cx32−/− mice = experiment: TAA-induced mortality in Cx32+/+ and Cx32−/− mice; assay type: in vivo; settings: single lethal dose 500 mg/kg TAA, 30 days
Protocol: FIG. 1C is a series of micrographs showing less liver hemorrhaging, necrosis and acute inflammation in Cx32−/− mice compared to Cx32+/+ mice 24 hours after TAA treatment (H&E staining; original magnification 10×; scale bar=400 μm). FIG. 1D presents bar graphs depicting increase in total liver TNF-α, pro-IL-1α, IL-6, and CCL5 transcripts, as measured by Q-PCR, in Cx32+/+ mice 12 hours after TAA, compared to Cx32−/− mice. FIG. 1E is a bar graph of liver tissue myeloperoxidase activity (MPO) in Cx32+/+ and Cx32−/− mice 24 hours after treatment with TAA. FIG. 1F is a Kaplan-Meier survival curve for Cx32+/+ and Cx32−/− mice over 30 days after a single lethal dose of 500 mg/kg TAA (Cx32+/+ and Cx32−/−: n=12).
C57BL/6 mice were purchased from Jackson Laboratory. Cx32−/− mice were a generous gift from K. Willecke (University of Bonn) and D. Paul (Harvard University). All animal protocols were approved by Massachusetts General Hospital Subcommittee on Research Animal Care. For survival experiments, animals were euthanized when they became moribund according to the criteria of lack of response to stimuli or lack of righting reflex.
TAA (Sigma Aldrich, St. Louis, Mo.) solution was made fresh for each experiment in 0.9% saline at 20 mg/ml. TAA was dosed at 200, 500 or 1000 mg/kg, depending on the experiment, and injected intraperitoneally. Control mice received the appropriate volume of 0.9% saline. […]

Cx32 gap junctions [1] = biological target: Cx32 gap junctions (Homo sapiens, UniProt P08034); settings: shown previously, Tao & Harris, 71 Mol. Pharmacol. 57 (2007); cited from earlier work
Cx32 gap junctions [2] = experiment: Dye-coupling parachute assay, HeLa Cx32 cells; assay type: cell-based; settings: 2APB 100 μM, 4 hours, normalized to no 2APB
Protocol: (§1) FIG. 2A-FIG. 2F presents data on small molecule inhibitors of Cx32 that selectively block hepatic gap junction communication and limit drug-induced hepatotoxicity. FIG. 2A and FIG. 2B depict a dye-coupling parachute assay was used to determine the specificity of 2APB for Cx32 gap junctions compared to Cx43 gap junctions. HeLa Cx32 or Cx43 cells were loaded with gap junction permeable calcein-AM (10 μM) and impermeable CM-DiI (10 μM), and seeded onto unlabeled recipient HeLa Cx32 or Cx43 cells, respectively, in the presence or absence of 2APB (100 μM). After 4 hours, the co-culture was analyzed by fluorescence microscopy (n>5), and gap junction communication was assessed by calculating the average number of calcein positive cells per CM-Dil positive cells, normalized to control conditions without 2APB treatment. FIG. 2C depicts a tissue version of the scrape and load test, developed to evaluate functional gap junction intercellular communication in liver tissue. Cx32+/+ and Cx32−/− mice were treated with saline, 2APB (20 mg/kg), or 2APB plus TAA (200 mg/kg) for 3 hours. […] Slices were washed, fixed, cryosectioned (7 μm), and analyzed by fluorescence microscopy (n>5) and custom automated image analysis software to produce iso-intensity contour maps outlining spread of Lucifer yellow and dextran-Texas red. […]

wild type mice [3] = experiment: APAP-induced hepatotoxicity in wild type mice treated with 2APB; assay type: in vivo
Protocol: (§2) Serum ALT levels (FIG. 3A); liver tissue MPO activity (FIG. 3B); and H&E liver sections (FIG. 3C) (original magnification 10×; scale bar=400 μm) from wildtype mice after treatment with 2APB alone (20 mg/kg), TAA (200 mg/kg) plus vehicle, TAA (200 mg/kg) plus 2APB (1 or 20 mg/kg), APAP (500 mg/kg) plus vehicle, or APAP (500 mg/kg) plus 2APB (20 mg/kg). Livers and sera were collected 24 hours after TAA challenge, or 16 hours after APAP challenge. FIG. 3D reflects Q-PCR for TNF-α, […], IL-6, and CCL5 from whole livers of mice treated with TAA and 2APB as described above. FIG. 3E is a Kaplan-Meier survival curve for wildtype mice over 30 days after a single lethal dose of TAA (500 mg/kg) plus vehicle, or TAA (500 mg/kg) plus 2APB (20 mg/kg) (n=10). Serum ALT levels (FIG. 3F) and H&E liver sections (FIG. 3G) (original magnification 10×; scale bar=400 μm) from wildtype mice after TAA (200 mg/kg) or APAP (500 mg/kg), with or without a rescue injection of 2APB (20 mg/kg) at 1.5, 3 or 6 hours after hepatotoxin challenge. Livers and sera were collected 24 hours after TAA challenge, or 16 hours after APAP challenge.
APAP (Sigma Aldrich) solution was made fresh for each experiment in 0.9% saline at 20 mg/ml and heated until dissolved. APAP was dosed at 500 or 750 mg/kg, and injected intraperitoneally after 15 hr of starvation. Animals were euthanized by ketamine/xylazine injection at 16 hr for collection of serum, and liver tissue for MPO activity assay and histology.
2APB (Sigma Aldrich) was made fresh for each experiment in DMSO as a vehicle at 200 mg/ml. 2APB was dosed at 1 or 20 mg/kg, and was administered before (90 min), with, or after (1.5, 3 or 6 hr) the appropriate dose of TAA or APAP. Vehicle control mice received the appropriate volume of DMSO. Fresh anhydrous DMSO (Sigma Aldrich) was used for each experiment. DMSO was dosed at 0.1 or 1 ml/kg, and coadministered concurrently with 200 mg/kg TAA or saline.
Mouse liver tissues were homogenized in MPO buffer (0.5% hexadecyl trimethyl ammonium bromide, 10 mM EDTA, 50 mM Na2HPO4, pH 5.4) using a Polytron homogenizer. Liver homogenates were then subject to three freeze-thaw cycles and cleared by centrifugation. MPO reaction was carried out using the Invitrogen EnzChek Myeloperoxidase Activity Assay Kit (Invitrogen, Carlsbad, Calif.), according to the manufacturer's protocol.

wild type mice [4] = experiment: TAA-induced hepatotoxicity in wild type mice treated with 2APB; assay type: in vivo; settings: for total hepatic ROS levels: 2APB (20 mg/kg) coadministered with TAA (200 mg/kg), 4 hours, dihydroethidium staining
Protocol: FIG. 2A-FIG. 2F presents data on small molecule inhibitors of Cx32 that selectively block hepatic gap junction communication and limit drug-induced hepatotoxicity. FIG. 2A and FIG. 2B depict a dye-coupling parachute assay was used to determine the specificity of 2APB for Cx32 gap junctions compared to Cx43 gap junctions. HeLa Cx32 or Cx43 cells were loaded with gap junction permeable calcein-AM (10 μM) and impermeable CM-DiI (10 μM), and seeded onto unlabeled recipient HeLa Cx32 or Cx43 cells, respectively, in the presence or absence of 2APB (100 μM). After 4 hours, the co-culture was analyzed by fluorescence microscopy (n>5), and gap junction communication was assessed by calculating the average number of calcein positive cells per CM-Dil positive cells, normalized to control conditions without 2APB treatment. FIG. 2C depicts a tissue version of the scrape and load test, developed to evaluate functional gap junction intercellular communication in liver tissue. Cx32+/+ and Cx32−/− mice were treated with saline, 2APB (20 mg/kg), or 2APB plus TAA (200 mg/kg) for 3 hours. Livers were excised, cut into 2-3 mm slices, and a small area of each slice was mechanically damaged with the insertion of a 27 gauge needle coated with 0.5% Lucifer yellow (gap junction permeable) and 0.5% Texas red labeled dextran (gap junction impermeable). Slices were washed, fixed, cryosectioned (7 μm), and analyzed by fluorescence microscopy (n>5) and custom automated image analysis software to produce iso-intensity contour maps outlining spread of Lucifer yellow and dextran-Texas red. […] FIG. 2D: Serum alanine aminotransferase (ALT) levels; FIG. 2E: liver tissue MPO activity; and FIG. 2F: H&E liver sections (original magnification 10×; scale bar=400 μm) from wildtype mice pretreated with 2APB (20 mg/kg) or vehicle for 60 minutes, and then challenged with TAA (200 mg/kg) for 24 hours.
as §2
Liver cryosections from Cx32+/+ mice treated with vehicle, TAA (200 mg/kg) plus vehicle, or TAA (200 mg/kg) plus 2APB (20 mg/kg) for 4 hours were stained with dihydroethidium, a cell permeable free radical probe that binds nucleic DNA and becomes fluorescent when […], and analyzed by fluorescence microscopy for ROS activity (n>5).
TAA (Sigma Aldrich, St. Louis, Mo.) solution was made fresh for each experiment in 0.9% saline at 20 mg/ml. TAA was dosed at 200, 500 or 1000 mg/kg, depending on the experiment, and injected intraperitoneally. Control mice received the appropriate volume of 0.9% saline. Animals were euthanized by ketamine/xylazine injection at 24 hr for collection of serum and liver tissue for qPCR, GSH/GST assay, MPO activity assay, and histology. For survival experiments, animals were observed every 24 hr for 30 days.
2APB (Sigma Aldrich) was made fresh for each experiment in DMSO as a vehicle at 200 mg/ml. […]

Cx43 gap junctions = experiment: Dye-coupling parachute assay, HeLa Cx43 cells; assay type: cell-based; settings: 2APB 100 μM, 4 hours, normalized to no 2APB
Protocol: as §1

[5] = tested on: hepatic gap junction communication; experiment: Tissue scrape and load assay on explanted liver slices; assay type: in vivo, mice; settings: 2APB 20 mg/kg i.p.; livers excised after 3 hours
Protocol: as §1, with “treatment.” for “treatment. FIG. 2C depicts a tissue version of the scrape and load test, developed to evaluate functional gap junction intercellular communication in liver tissue. Cx32+/+ and Cx32−/− mice were treated with saline, 2APB (20 mg/kg), or 2APB plus TAA (200 mg/kg) for 3 hours.”
Fluorescence images were captured on a Zeiss 200 Axiovert microscope at a fixed exposure and gain. Images for the tissue scrape load assay were quantified using custom image analysis routines written in MATLAB13. […] Regional outlines were plotted as contour maps by displaying iso-intensity lines at the determined threshold level.

[6] = 2APB (20 mg/kg) coadministered with APAP (500 mg/kg), 16 hours
[7] = rescue injection of 2APB (20 mg/kg) 6 hours after APAP (500 mg/kg)
[8] = 2APB coadministered with TAA (200 mg/kg), 24 hours
[9] = rescue injection of 2APB (20 mg/kg) 6 hours after TAA (200 mg/kg)
[10] = single dose 2APB (20 mg/kg) 60 minutes prior to TAA (200 mg/kg), 24 hours, compared to vehicle

Cx32 gap junctions (Homo sapiens, UniProt P08034), sequence (P08034 whole entry): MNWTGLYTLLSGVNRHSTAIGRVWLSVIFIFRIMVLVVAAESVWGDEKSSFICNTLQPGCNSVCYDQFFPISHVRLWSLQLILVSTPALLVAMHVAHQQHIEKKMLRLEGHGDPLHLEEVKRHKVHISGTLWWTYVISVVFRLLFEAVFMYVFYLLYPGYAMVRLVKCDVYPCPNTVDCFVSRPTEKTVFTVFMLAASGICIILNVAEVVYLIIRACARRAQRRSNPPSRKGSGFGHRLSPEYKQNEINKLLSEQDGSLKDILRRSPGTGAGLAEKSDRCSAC

CC(=N)S [TAA, thioacetamide]
mortality (Cx32+/+ and Cx32−/− mice; Cx32+/+ mice): 100% | survival (Cx32+/+ and Cx32−/− mice; Cx32−/− mice): 100%

NCCOB(c1ccccc1)c1ccccc1 [2APB, 2-aminoethyoxydiphenyl-borate]
inhibition of Cx32 gap junctions in vitro (Cx32 gap junctions [1]): transiently inhibit | spread of calcein via Cx32 gap junctions (Cx32 gap junctions [2]): blocked | histological evidence of hepatic necrosis and hemorrhaging (wild type mice [3]; [6]): dramatically reduced | neutrophil infiltration (liver tissue MPO activity) (wild type mice [3]; [6]): dramatically reduced | serum ALT (wild type mice [3]; 2APB (20 mg/kg) coadministered with APAP (500 mg/kg), 16 hours, compared with APAP alone): dramatically reduced | liver inflammation (wild type mice [3]; 2APB coadministered with APAP): dramatically reduced | total hepatic ROS levels (wild type mice [3]; 2APB coadministered with APAP): dramatically reduced | hepatotoxicity (wild type mice [3]; rescue injection of 2APB (20 mg/kg) 1.5 hours after APAP (500 mg/kg)): nearly complete absence | hepatocellular damage and necrosis (wild type mice [3]; [7]): limited | serum ALT levels (wild type mice [3]; [7]): reduced | total hepatic ROS levels (wild type mice [4]): dramatically reduced | total hepatic ROS levels (wild type mice [4]; listed as 2-APB): abrogated | serum ALT (wild type mice [4]; 2APB (1 or 20 mg/kg) coadministered with TAA (200 mg/kg), 24 hours, compared with TAA alone): dramatically reduced | histological evidence of hepatic necrosis and hemorrhaging (wild type mice [4]; [8]): dramatically reduced | neutrophil infiltration (liver tissue MPO activity) (wild type mice [4]; [8]): dramatically reduced | liver inflammation (wild type mice [4]; 2APB coadministered with TAA (200 mg/kg), Q-PCR of whole livers): dramatically reduced | hepatotoxicity (wild type mice [4]; rescue injection of 2APB (20 mg/kg) 1.5 hours after TAA (200 mg/kg)): nearly complete absence | hepatocellular damage and necrosis (wild type mice [4]; [9]): limited | serum ALT levels (wild type mice [4]; [9]): reduced | histological evidence of parenchymal damage (wild type mice [4]; [10]): dramatically reduced | neutrophil infiltration (liver tissue MPO activity) (wild type mice [4]; [10]): limited | serum ALT (wild type mice [4]; [10]): significantly reduced | survival (wild type mice [4]; single lethal dose TAA (500 mg/kg) plus 2APB (20 mg/kg), 30 days): 100% | effect on Cx43 gap junctions (spread of calcein) (Cx43 gap junctions): minimal effect | hepatic gap junction communication in vivo (spread of Lucifer yellow) [5]: effectively blocks
